One experiment relates to A2780 cells. The experiment can be described thus: Cell bioactivity detection (CyQuant), A2780. In kind it is cell-based, human. To be noted: ovarian carcinoma cells A2780, 72 hours. Summed up: (§1)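 A2780 or HCC70 cells (2000/well, RPMI 1640 + 10% FBS) were seeded overnight, then treated for 72 h at 37° C, 5% CO2 with compound: top 10 μM, 1:4 dilutions, 9 points, 0.2% DMSO. Viable cell number was measured by CyQuant Direct nucleic-acid staining (≥60 min, 37° C) on an Acumen reader at 488 nm excitation, and IC50 was calculated.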

Experiment [1] has as its target CDK7/cyclin H/MAT1 complex (Homo sapiens (Human), UniProt P50613). The experiment in a line: In vitro enzymatic inhibitory activity test, CDK7. It is filed as biochemical. To be noted: Caliper mobility shift, 180 min at 27° C.
The target in experiment [2] is CDK12(aa686-1082)/cyclin K complex (Homo sapiens (Human), UniProt Q9NYV4). The experiment can be described thus: In vitro enzymatic inhibitory activity test, CDK12. It is filed as biochemical. The following applies: Caliper mobility shift, 180 min at 27° C.
The next experiment addresses CDK2/cyclin E1 complex (Homo sapiens (Human), UniProt P24941). The experiment can be described thus: In vitro enzymatic inhibitory activity test, CDK2. To be noted: Caliper mobility shift, 180 min at 27° C. In kind it is biochemical.
The test system of the next experiment is HCC70 cells. The experiment can be described thus: Cell bioactivity detection (CyQuant), HCC70. In kind it is cell-based. To be noted: human breast cancer cells HCC70, 72 hours. A digest of the protocol:
as §1

The target of another experiment is CDK9/CyclinT1 (Homo sapiens (Human), UniProt P50750). The experiment can be described thus: In vitro enzymatic inhibitory activity test, CDK9. In kind it is biochemical. The following applies: Caliper mobility shift, 180 min at 27° C.

Structures can show the parent of a compound that is named as a salt.

CDK12(aa686-1082)/cyclin K complex, sequence (Q9NYV4 686-1082, species assumed): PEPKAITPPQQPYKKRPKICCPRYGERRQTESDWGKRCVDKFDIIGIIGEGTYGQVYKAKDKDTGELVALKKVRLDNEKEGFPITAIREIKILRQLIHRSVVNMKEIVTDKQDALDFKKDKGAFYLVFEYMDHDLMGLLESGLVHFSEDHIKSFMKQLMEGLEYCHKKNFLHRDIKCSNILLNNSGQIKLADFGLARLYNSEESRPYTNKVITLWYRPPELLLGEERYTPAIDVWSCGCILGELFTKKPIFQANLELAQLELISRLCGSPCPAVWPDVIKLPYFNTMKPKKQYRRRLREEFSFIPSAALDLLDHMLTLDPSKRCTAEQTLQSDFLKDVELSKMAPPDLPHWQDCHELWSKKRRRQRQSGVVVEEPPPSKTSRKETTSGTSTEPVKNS
CDK12(aa686-1082)/cyclin K complex, sequence (O75909 whole entry partner, species assumed, the tested form may be a part): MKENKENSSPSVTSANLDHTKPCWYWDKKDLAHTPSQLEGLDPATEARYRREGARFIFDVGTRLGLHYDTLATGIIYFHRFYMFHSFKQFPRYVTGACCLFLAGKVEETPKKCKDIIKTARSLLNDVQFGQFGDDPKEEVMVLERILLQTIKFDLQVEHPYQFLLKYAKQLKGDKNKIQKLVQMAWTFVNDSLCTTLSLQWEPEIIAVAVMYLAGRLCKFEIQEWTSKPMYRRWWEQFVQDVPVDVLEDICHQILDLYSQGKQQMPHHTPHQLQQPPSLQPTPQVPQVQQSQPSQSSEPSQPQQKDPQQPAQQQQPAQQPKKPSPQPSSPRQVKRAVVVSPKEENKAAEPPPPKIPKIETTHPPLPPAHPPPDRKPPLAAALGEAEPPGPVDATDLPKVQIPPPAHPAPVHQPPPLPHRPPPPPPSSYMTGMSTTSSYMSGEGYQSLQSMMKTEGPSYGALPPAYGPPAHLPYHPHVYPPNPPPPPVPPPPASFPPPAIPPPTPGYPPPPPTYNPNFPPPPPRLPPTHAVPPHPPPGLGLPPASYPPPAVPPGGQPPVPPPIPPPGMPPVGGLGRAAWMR
CDK9/CyclinT1, sequence (P50750 whole entry, species assumed): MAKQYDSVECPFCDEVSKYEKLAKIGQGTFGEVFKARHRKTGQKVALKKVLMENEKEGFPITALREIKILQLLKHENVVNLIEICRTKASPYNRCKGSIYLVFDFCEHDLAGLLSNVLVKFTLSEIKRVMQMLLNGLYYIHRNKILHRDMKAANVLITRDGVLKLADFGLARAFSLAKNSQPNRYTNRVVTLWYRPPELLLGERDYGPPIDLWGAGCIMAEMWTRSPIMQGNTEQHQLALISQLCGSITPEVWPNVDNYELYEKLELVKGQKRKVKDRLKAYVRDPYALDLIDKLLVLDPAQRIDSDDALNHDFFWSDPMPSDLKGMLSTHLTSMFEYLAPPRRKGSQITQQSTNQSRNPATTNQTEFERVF
CDK9/CyclinT1, sequence (O60563 whole entry partner, species assumed): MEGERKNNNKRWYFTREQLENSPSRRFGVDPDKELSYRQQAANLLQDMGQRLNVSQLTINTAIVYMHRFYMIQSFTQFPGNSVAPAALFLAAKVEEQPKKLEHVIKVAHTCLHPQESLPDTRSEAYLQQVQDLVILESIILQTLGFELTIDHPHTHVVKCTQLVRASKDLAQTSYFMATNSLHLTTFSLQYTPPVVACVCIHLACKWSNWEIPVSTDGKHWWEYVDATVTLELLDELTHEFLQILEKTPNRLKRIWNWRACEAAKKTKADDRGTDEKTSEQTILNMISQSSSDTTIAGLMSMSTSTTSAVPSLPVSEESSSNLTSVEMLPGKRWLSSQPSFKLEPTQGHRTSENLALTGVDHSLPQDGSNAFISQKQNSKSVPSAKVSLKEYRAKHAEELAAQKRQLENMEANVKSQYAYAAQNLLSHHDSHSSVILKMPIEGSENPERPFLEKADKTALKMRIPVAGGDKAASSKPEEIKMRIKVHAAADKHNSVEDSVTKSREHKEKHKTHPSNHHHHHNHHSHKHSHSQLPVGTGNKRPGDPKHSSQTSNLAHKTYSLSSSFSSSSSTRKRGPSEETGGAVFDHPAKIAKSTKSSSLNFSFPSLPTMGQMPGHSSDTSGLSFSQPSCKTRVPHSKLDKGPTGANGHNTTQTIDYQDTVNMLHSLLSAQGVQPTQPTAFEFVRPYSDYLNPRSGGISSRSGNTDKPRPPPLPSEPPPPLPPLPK
CDK7/cyclin H/MAT1 complex, sequence (P50613 whole entry, species assumed, the tested form may be a part): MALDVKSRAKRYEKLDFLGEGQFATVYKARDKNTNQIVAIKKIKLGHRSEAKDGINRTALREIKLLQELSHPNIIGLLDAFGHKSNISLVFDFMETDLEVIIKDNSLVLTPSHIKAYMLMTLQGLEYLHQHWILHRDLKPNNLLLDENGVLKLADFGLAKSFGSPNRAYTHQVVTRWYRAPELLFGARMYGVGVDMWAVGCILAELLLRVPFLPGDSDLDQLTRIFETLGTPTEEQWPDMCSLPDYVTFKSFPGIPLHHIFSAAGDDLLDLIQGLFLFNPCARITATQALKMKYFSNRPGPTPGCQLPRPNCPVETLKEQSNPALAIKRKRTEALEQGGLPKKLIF
CDK7/cyclin H/MAT1 complex, sequence (P51946 whole entry partner, species assumed, the tested form may be a part): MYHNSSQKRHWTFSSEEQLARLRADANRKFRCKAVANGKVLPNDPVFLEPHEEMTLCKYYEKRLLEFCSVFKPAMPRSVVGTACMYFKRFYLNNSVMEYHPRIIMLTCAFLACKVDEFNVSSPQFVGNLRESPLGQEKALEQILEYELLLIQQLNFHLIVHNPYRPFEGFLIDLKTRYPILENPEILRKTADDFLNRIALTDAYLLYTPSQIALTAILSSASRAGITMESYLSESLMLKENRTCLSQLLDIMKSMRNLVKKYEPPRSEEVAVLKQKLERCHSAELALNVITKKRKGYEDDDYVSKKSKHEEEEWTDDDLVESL
CDK7/cyclin H/MAT1 complex, sequence (P51948 whole entry partner, species assumed, the tested form may be a part): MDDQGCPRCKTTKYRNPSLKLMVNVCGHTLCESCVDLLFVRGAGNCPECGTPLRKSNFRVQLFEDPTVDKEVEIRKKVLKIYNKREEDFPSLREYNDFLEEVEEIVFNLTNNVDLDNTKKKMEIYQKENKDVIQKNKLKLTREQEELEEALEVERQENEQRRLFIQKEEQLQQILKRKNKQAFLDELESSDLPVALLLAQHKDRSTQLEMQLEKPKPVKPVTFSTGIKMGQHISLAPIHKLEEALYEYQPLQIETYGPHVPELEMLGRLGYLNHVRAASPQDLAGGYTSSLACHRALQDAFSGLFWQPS

For `FC(F)(F)c1cnc(N[C@H]2CCCNC2)nc1-c1c[nH]c2nc(N3CCC4(CC3)COC4)ccc12` [Compound 15, (S)-4-(6-(2-oxa-7-azaspiro[3.5]nonan-7-yl)-1H-pyrrolo[2,3-b]pyridin-3-yl)-N-(piperidin-3-yl)-5-(trifluoromethyl)pyrimidine-2-amine], the IC50 in the experiment on A2780 cells (Homo sapiens, A2780, 72 h) was found to be 10 nM; in experiment [1], 16.5 nM; in experiment [2], 1120 nM; at CDK2/cyclin E1 complex it was 4150 nM; in the experiment on HCC70 cells (Homo sapiens, HCC70, 72 h) it was 12 nM; at CDK9/CyclinT1, 3320 nM.

As for `OCC1CCN(c2ccc3c(-c4nc(N[C@H]5CCCNC5)ncc4C(F)(F)F)c[nH]c3n2)CC1` [Compound 4], the IC50 in the experiment on A2780 cells (Homo sapiens, A2780, 72 h) was 8 nM; in experiment [1], 17.4 nM; in experiment [2], 733 nM; at CDK2/cyclin E1 complex, 1480 nM; in the experiment with HCC70 cells (Homo sapiens, HCC70, 72 h), 6.1 nM; on CDK9/CyclinT1, 682 nM.

For the compound `FC(F)(F)c1cnc(N[C@H]2CCCNC2)nc1-c1c[nH]c2nc(N3CCC4(CCOC4)CC3)ccc12` [Compound 9, (S)-4-(6-(2-oxa-8-azaspiro[4.5]decan-8-yl)-1H-pyrrolo[2,3-b]pyridin-3-yl)-N-(piperidin-3-yl)-5-(trifluoromethyl)pyrimidine-2-amine], the IC50 with A2780 cells (Homo sapiens, A2780, 72 h) turned out to be 36.3 nM; in experiment [1], 28.7 nM; in experiment [2], 1270 nM; on CDK2/cyclin E1 complex, 7290 nM; with HCC70 cells (Homo sapiens, HCC70, 72 h), 44 nM; on CDK9/CyclinT1, 4530 nM.

Regarding `FC(F)(F)c1cnc(N[C@H]2CCCNC2)nc1-c1c[nH]c2nc(C3CCOC3)ccc12` (single isomer, unassigned) [Compound 108], the IC50 in the experiment with A2780 cells was found to be 3.9 nM; in experiment [1], 4.36 nM; in experiment [2], 512 nM; at CDK2/cyclin E1 complex, 947 nM; in the experiment with HCC70 cells, 3.8 nM; at CDK9/CyclinT1 it was 1410 nM.

As to `FC(F)(F)c1cnc(N[C@H]2CCCNC2)nc1-c1c[nH]c2nc(N3CCCC4(CCOCC4)C3)ccc12` [Compound 10, (S)-4-(6-(9-oxa-2-azaspiro[5.5]undecan-2-yl)-1H-pyrrolo[2,3-b]pyridin-3-yl)-N-(piperidin-3-yl)-5-(trifluoromethyl)pyrimidine-2-amine], the IC50 came out at 109 nM in the experiment on A2780 cells (Homo sapiens, A2780, 72 h); 27 nM in experiment [1]; 823 nM in experiment [2]; 2090 nM on CDK2/cyclin E1 complex; 102 nM with HCC70 cells (Homo sapiens, HCC70, 72 h); 4010 nM on CDK9/CyclinT1.

In the case of `CC1COCCC1c1ccc2c(-c3nc(N[C@H]4CCCNC4)ncc3C(F)(F)F)c[nH]c2n1` (stereo partly drawn) [Compound 110, 4-(6-(3-methyltetrahydropyran-4-yl)-1H-pyrrol[2,3-b]pyridin-3-yl)-N—((S)-piperidin-3-yl)-5-(trifluoromethyl)pyrimidine-2-amine formate], the IC50 with A2780 cells (Homo sapiens, A2780, 72 h) turned out to be 38.6 nM; in experiment [1], 3.48 nM; in experiment [2], 1610 nM; at CDK2/cyclin E1 complex, 2180 nM; in the experiment on HCC70 cells (Homo sapiens, HCC70, 72 h) it was 38.6 nM; on CDK9/CyclinT1, 4260 nM.

Turning to `FC(F)(F)c1cnc(N[C@@H]2CN3CCC2CC3)nc1-c1c[nH]c2nc(N3CCOCC3)ccc12` [Compound 44, (S)—N-(4-(6-morpholinyl-1H-pyrrol[2,3-b]pyridin-3-yl)-5-(trifluoromethyl)pyrimidin-2-yl)quinine-3-amine formate], the IC50 in the experiment with A2780 cells (Homo sapiens, A2780, 72 h) is 253 nM; in experiment [1], 131 nM; in experiment [2], 4460 nM; at CDK2/cyclin E1 complex, above 10000 nM; in the experiment with HCC70 cells (Homo sapiens, HCC70, 72 h), 684 nM; at CDK9/CyclinT1, 3650 nM.

Turning to `FC(F)(F)c1cnc(N[C@H]2CCCNC2)nc1-c1c[nH]c2nc(C34CCOCC3C4)ccc12` (stereo partly drawn) [Compound 31, 4-(6-(3-oxabicyclo[4.1.0]heptan-6-yl)-1H-pyrrolo[2,3-b]pyridin-3-yl)-N—((S)-piperidin-3-yl)-5-(trifluoromethyl)pyrimidine-2-amine formate], the IC50 in the experiment with A2780 cells (Homo sapiens, A2780, 72 h) is 4.1 nM; in experiment [1] it was 8.13 nM; in experiment [2] it was 517 nM; on CDK2/cyclin E1 complex it was 968 nM; in the experiment on HCC70 cells (Homo sapiens, HCC70, 72 h) it was 5.8 nM; on CDK9/CyclinT1, 1480 nM.

As to `C[C@H]1COCCN1c1nc2[nH]cc(-c3nc(N[C@H]4CCCNC4)ncc3C(F)(F)F)c2cc1F` [Compound 75, 4-(5-fluoro-6-((S)-3-methylmorpholinyl)-1H-pyrrol[2,3-b]pyridin-3-yl)-N—((S)-piperidin-3-yl)-5-(trifluoromethyl)pyrimidine-2-amine formate], the IC50 with A2780 cells (Homo sapiens, A2780, 72 h) came to 7.4 nM; in experiment [1], 8.5 nM; in experiment [2], 3340 nM; on CDK2/cyclin E1 complex, 2380 nM; with HCC70 cells (Homo sapiens, HCC70, 72 h) it was 9.2 nM; at CDK9/CyclinT1 it was 5930 nM.

As for `N#CC1CCN(c2ccc3c(-c4nc(N[C@H]5CCCNC5)ncc4C(F)(F)F)c[nH]c3n2)CC1` [Compound 20, (S)-1-(3-(2-(piperidine-3-amino)-5-(trifluoromethyl)pyrimidin-4-yl)-1H-pyrrolo[2,3-b]pyridin-6-yl)piperidine-4-nitrile], the IC50 was found to be 8.3 nM in the experiment with A2780 cells (Homo sapiens, A2780, 72 h); 8.43 nM in experiment [1]; 765 nM in experiment [2]; 3280 nM at CDK2/cyclin E1 complex; 13.7 nM with HCC70 cells (Homo sapiens, HCC70, 72 h); 2970 nM on CDK9/CyclinT1.

Regarding `O=S1(=O)CCN(c2ccc3c(-c4nc(N[C@H]5CCCNC5)ncc4C(F)(F)F)c[nH]c3n2)CC1` [Compound 25, (S)-4-(3-(2-(piperidine-3-amino)-5-(trifluoromethyl)pyrimidin-4-yl)-1H-pyrrolo[2,3-b]pyridin-6-yl)thiomorpholine-1,1-dioxide], the IC50 with A2780 cells (Homo sapiens, A2780, 72 h) turned out to be 7.9 nM; in experiment [1], 6.5 nM; in experiment [2], 277 nM; on CDK2/cyclin E1 complex, 1040 nM; with HCC70 cells (Homo sapiens, HCC70, 72 h) it was 11 nM; on CDK9/CyclinT1, 402 nM.

Consider `C[C@@H]1CNC[C@@H](Nc2ncc(C(F)(F)F)c(-c3c[nH]c4nc(N5CCOC[C@@H]5C)ccc34)n2)C1` [Compound 115, 4-(6-((S)-3-methylmorpholinyl)-1H-pyrrol[2,3-b]pyridin-3-yl)-N-((3S,5S)-5-methylpiperidin-3-yl)-5-(trifluoromethyl)pyrimidine-2-amine], for which the half-inhibitory concentration (IC50) in the experiment on A2780 cells (Homo sapiens, A2780, 72 h) was determined as 45.5 nM; in experiment [1], 9.52 nM; in experiment [2], 12900 nM; on CDK2/cyclin E1 complex, 19500 nM; in the experiment on HCC70 cells (Homo sapiens, HCC70, 72 h) it was 42 nM; at CDK9/CyclinT1, 27700 nM.

On to `FC(F)(F)c1cnc(N[C@H]2CCCNC2)nc1-c1c[nH]c2nc(N3CCC4(CCO4)CC3)ccc12` [Compound 16, (S)-4-(6-(1-oxa-7-azaspiro[3.5]nonan-7-yl)-1H-pyrrolo[2,3-b]pyridin-3-yl)-N-(piperidin-3-yl)-5-(trifluoromethyl)pyrimidine-2-amine], for which the half-maximal inhibitory concentration (IC50) with A2780 cells (Homo sapiens, A2780, 72 h) was found to be 11 nM; in experiment [1], 10.8 nM; in experiment [2], 1230 nM; on CDK2/cyclin E1 complex it was 2880 nM; in the experiment with HCC70 cells (Homo sapiens, HCC70, 72 h), 13 nM; on CDK9/CyclinT1, 3580 nM.

Turning to `OC1CCN(c2ccc3c(-c4nc(N[C@H]5CCCNC5)ncc4C(F)(F)F)c[nH]c3n2)CC1` [Compound 3, (S)-1-(3-(2-(piperidin-3-ylamino)-5-(trifluoromethyl)pyrimidin-4-yl)-1H-pyrrolo[2,3-b]pyridin-6-yl)piperidin-4-ol], the IC50 with A2780 cells (Homo sapiens, A2780, 72 h) turned out to be 12 nM; in experiment [1], 17.4 nM; in experiment [2], 679 nM; on CDK2/cyclin E1 complex, 2680 nM; in the experiment with HCC70 cells (Homo sapiens, HCC70, 72 h) it was 7.9 nM; on CDK9/CyclinT1, 722 nM.

With `FC(F)(F)c1cnc(N[C@H]2CCCNC2)nc1-c1c[nH]c2nc(C3CCCCO3)ccc12` (stereo partly drawn) [Compound 30, N—((S)-piperidin-3-yl)-4-(6-(tetrahydropyran-2-yl)-1H-pyrrolo[2,3-b]pyridin-3-yl)-5-(trifluoromethyl)pyrimidine-2-amine formate], the IC50 was 5.6 nM in the experiment with A2780 cells (Homo sapiens, A2780, 72 h); 10.5 nM in experiment [1]; 2150 nM in experiment [2]; 3260 nM on CDK2/cyclin E1 complex; 20 nM in the experiment with HCC70 cells (Homo sapiens, HCC70, 72 h); 9530 nM on CDK9/CyclinT1.

For `FC(F)(F)c1cnc(N[C@H]2CCCNC2)nc1-c1c[nH]c2nc(N3CCOCC3)ccc12` [Compound 1, (S)-4-(6-morpholinyl-1H-pyrrolo[2,3-b]pyridin-3-yl)-N-(piperidin-3-yl)-5-(trifluoromethyl)pyrimidine-2-amine], the IC50 in the experiment on A2780 cells (Homo sapiens, A2780, 72 h) was determined as 14 nM; in experiment [1] it was 13.4 nM; in experiment [2] it was 1460 nM; on CDK2/cyclin E1 complex, 3020 nM; in the experiment on HCC70 cells (Homo sapiens, HCC70, 72 h), 14 nM; at CDK9/CyclinT1 it was 1180 nM.

Turning to `FC(F)(F)c1cnc(N[C@H]2CCCNC2)nc1-c1c[nH]c2cc(N3CCCC3)ccc12` [Compound 101, (S)—N-(Piperidin-3-Yl)-4-(6-(Pyrrolidin-1-Yl)-1H-Indol-3-Yl)-5-(Trifluoromethyl)Pyrimidine-2-Amine, reference compound], the IC50 is 157 nM in the experiment on A2780 cells (Homo sapiens, A2780, 72 h); 28.5 nM in experiment [1]; 1600 nM in experiment [2]; above 10000 nM on CDK2/cyclin E1 complex; 232 nM with HCC70 cells (Homo sapiens, HCC70, 72 h); 4610 nM at CDK9/CyclinT1.

Consider `C[C@H]1COCCN1c1ccc2c(-c3nc(N[C@@H]4CNC[C@@H](F)C4)ncc3C(F)(F)F)c[nH]c2n1` [Compound 73, N-((3S,5S)-5-fluoropyridin-3-yl)-4-(6-((S)-3-methylmorpholinyl)-1H-pyrrol[2,3-b]pyridin-3-yl)-5-(trifluoromethyl)pyrimidine-2-amine], for which the IC50 was 6.2 nM in the experiment on A2780 cells; 11.5 nM in experiment [1]; 3380 nM in experiment [2]; 4290 nM at CDK2/cyclin E1 complex; 35 nM in the experiment on HCC70 cells; 3350 nM at CDK9/CyclinT1.

As a reminder, the IC50 is the concentration at which inhibition is half-maximal.

The record behind these values is patent US20240132489A1, “AROMATIC HETEROCYCLIC COMPOUND, PHARMACEUTICAL COMPOSITION, AND USE THEREOF” (GT APEIRON THERAPEUTICS LIMITED, priority 2020, published 2024).
